The values that follow come from article PMC4281220, “Antibacterial Activity of Novel Cationic Peptides against Clinical Isolates of Multi-Drug Resistant Staphylococcus pseudintermedius from Infected Dogs” (PLoS ONE, 2014).

Values after ≈ are worked out from the molar mass of the structure shown. Like-named read-outs stand apart in the source and are kept apart here. Residues, ends and D or L forms follow the SMILES beside them.

For data set [1], the system named is methicillin resistant Staphylococcus pseudintermedius (MRSP) strains. The procedure: (§1) Forty isolates of S. pseudintermedius (30 MSSP and 10 MRSP) identified at the Indiana Animal Disease Diagnostic laboratory from specimens collected from dogs admitted to the small animal teaching hospital at Purdue University were included in the study (Tables 2 and 3). […] Vitek identification of S. pseudintermedius was confirmed by a positive coagulase test. Antimicrobial susceptibility was determined by broth microdilution using the SensiTitre (Trek).
(§2) The broth microdilution technique was used to determine the minimum inhibitory concentrations (MIC) of peptides and antibiotics in MHB in accordance with the Clinical and Laboratory Standards Institute (CLSI) guidelines. Peptides were dissolved in sterile distilled water containing 0.02% acetic acid. […] MIC was defined as the lowest concentration of peptide which inhibited the visible growth of bacteria. MIC was done in triplicates and the highest value was reported.

For data set [2], the system named is methicillin sensitive Staphylococcus pseudintermedius (MSSP) strains. The procedure: as §1, §2
Data set [3] has as its system S. pseudintermedius strains. The data set is classed as cell-based, Staphylococcus pseudintermedius. Particulars: for GM MIC S. pseudintermedius: 24 h. Here is the method:
The broth microdilution technique was used to determine the minimum inhibitory concentrations (MIC) of peptides and antibiotics in MHB in accordance with the Clinical and Laboratory Standards Institute (CLSI) guidelines. Peptides were dissolved in sterile distilled water containing 0.02% acetic acid. MIC assays were carried out with an initial bacterial inoculum of 5×10^5 colony forming unit (CFU/ml). Peptides and antibiotics were added to Polystyrene 96 well plates (CytoOne, CC7672-7596) at desired concentrations and plates were incubated for 24 hr at 37°C. MIC was defined as the lowest concentration of peptide which inhibited the visible growth of bacteria. MIC was done in triplicates and the highest value was reported.
(§3) Untreated cells were used as a negative control.

In data set [4] the test system is macrophage-like cell line (J774A.1). In words: Cytotoxicity, MTS assay, J774A.1. Format: cell-based.
Procedure: Peptides were assayed at different concentrations against macrophage-like cell line (J774A.1) and human keratinocyte (HaCat) to determine the potential toxic effect in vitro. […] Untreated cells were used as a negative control. […] After incubation, the cells were washed three times with PBS and the media in each well were replaced with 100 µL of DMEM media and 20 µL of assay reagent, MTS 3-(4,5-dimethylthiazol-2-yl)-5-(3-carboxymethoxyphenyl)-2-(4-sulfophenyl)-2H-tetrazolium) (Promega, Madison, WI, USA). The cells were incubated further for 4 h at 37°C. Corrected absorbance readings (actual absorbance readings for each treatment subtracted from background absorbance) were taken using a kinetic ELISA microplate reader (Molecular Devices, Sunnyvale, CA, USA). Cell viability was expressed as percentage of absorbance in comparison to negative control, untreated cells.
For data set [5], the system named is human keratinocyte (HaCat). In words: Cytotoxicity, MTS assay, HaCat. Format: cell-based. The following applies: for IC50: 24 h.
Source text: as §3

The test system of data set [6] is Staphylococcus pseudintermedius (SP3). Format: cell-based. Here is the method: The synergistic effect between peptides and antimicrobial agents was determined by the combination assay as described previously. Peptide MICs against SP3 were determined in triplicate. […] Additive was defined as an FIC index of 1. Antagonism was defined as an FIC index of >4.

In the case of `NCCCC[C@H](NC(=O)[C@H](Cc1ccccc1)NC(=O)[C@H](Cc1ccccc1)NC(=O)[C@H](CCCCN)NC(=O)[C@H](Cc1ccccc1)NC(=O)[C@H](Cc1ccccc1)NC(=O)[C@H](CCCCN)NC(=O)[C@H](Cc1ccccc1)NC(=O)[C@H](Cc1ccccc1)NC(=O)[C@@H](N)CCCCN)C(N)=O` [(KFF)3K] (H-KFFKFFKFFK-NH2), the values for the MIC50 in data set [1] and in data set [2] were 4 µM (≈ 5.65 µg/mL) and 8 µM (≈ 11.3 µg/mL), respectively. Also, the MIC90 in data set [1] is reported as 8 µM (≈ 11.3 µg/mL); in data set [2] it was 16 µM (≈ 22.6 µg/mL). The “GM MIC S. pseudintermedius” value in data set [3] stood at 7.75 µM. For the same compound, the IC50 in data set [4] (24 h) is 256 µM; in data set [5] it was above 256 µM. For the same compound, the “TI (Therapeutic index) J774A.1” value in data set [4] (24 h) is recorded as 33/>33.

As for `CNC(C)C1CCC(N)C(OC2C(N)CC(N)C(OC3OCC(C)(O)C(NC)C3O)C2O)O1` (stereo not shown) [Gentamicin], the FIC index in data set [6] (compound serially diluted in the presence of (KFF)3K fixed at one-quarter of its MIC) worked out at 0.26; in data set [6] (compound serially diluted in the presence of IK8 “D isoform” fixed at one-quarter of its MIC) it was 1; in data set [6] (compound serially diluted in the presence of Penetratin fixed at one-quarter of its MIC), 1; in data set [6] (compound serially diluted in the presence of RR fixed at one-quarter of its MIC), 0.75; in data set [6] (compound serially diluted in the presence of RRIKA fixed at one-quarter of its MIC), 1; in data set [6] (compound serially diluted in the presence of WR-12 fixed at one-quarter of its MIC), 0.75.

In the case of `CC[C@H](C)[C@H](NC(=O)[C@H](CCCNC(=N)N)NC(=O)[C@H](CCCNC(=N)N)NC(=O)[C@H](CC(C)C)NC(=O)[C@H](Cc1c[nH]c2ccccc12)NC(=O)[C@H](C)NC(=O)[C@H](CCCCN)NC(=O)[C@@H](NC(=O)[C@H](CCCNC(=N)N)NC(=O)[C@H](CCCNC(=N)N)NC(=O)[C@H](CC(C)C)NC(=O)[C@@H](N)Cc1c[nH]c2ccccc12)[C@@H](C)CC)C(=O)N[C@@H](CCCCN)C(=O)N[C@@H](C)C(=O)O` [RRIKA], the MIC50 in data set [1] and in data set [2] was 1 µM (≈ 1.87 µg/mL) each time. Also, the MIC90 was 1 µM (≈ 1.87 µg/mL) in data set [1] and 2 µM (≈ 3.73 µg/mL) in data set [2]. Also, in data set [3], the “GM MIC S. pseudintermedius” value was 1.15 µM. Besides, the values for the IC50 in data set [4] (24 h) and in data set [5] were 64 µM and 128 µM, respectively. In addition, the “TI (Therapeutic index) J774A.1” value in data set [4] (24 h) came to 55.6. Moreover, the “TI (Therapeutic index) HaCat” value in data set [5] (ratio of the IC50 over the geometric mean MIC value) worked out at 111.2.

`CC[C@H](C)[C@H](NC(=O)CN)C(=O)NCC(=O)N[C@@H](C)C(=O)N[C@H](C(=O)N[C@@H](CC(C)C)C(=O)N[C@@H](CCCCN)C(=O)N[C@H](C(=O)N[C@@H](CC(C)C)C(=O)N[C@H](C(=O)N[C@H](C(=O)NCC(=O)N[C@@H](CC(C)C)C(=O)N1CCC[C@H]1C(=O)N[C@@H](C)C(=O)N[C@@H](CC(C)C)C(=O)N[C@H](C(=O)N[C@@H](CO)C(=O)N[C@@H](Cc1c[nH]c2ccccc12)C(=O)N[C@H](C(=O)N[C@@H](CCCCN)C(=O)N[C@@H](CCCNC(=N)N)C(=O)N[C@@H](CCCCN)C(=O)N[C@@H](CCCNC(=N)N)C(=O)N[C@@H](CCC(N)=O)C(=O)N[C@@H](CCC(N)=O)C(N)=O)[C@@H](C)CC)[C@@H](C)CC)[C@@H](C)O)[C@@H](C)O)C(C)C)C(C)C` [Melittin, melittin, reference compound]: the MIC in data set [3] (MIC of the melittin, strain not stated) is 5 µM. The half-inhibitory concentration (IC50) in data set [4] (MTS assay, 24 hours treatment, 8 to 256 µM, DMEM 10% FBS, concentration that inhibits 50% of cells, read-out: IC50 J774A.1) amounted to 2 µM. Further, the “concentration toxic to J774A.1” value in data set [4] (MTS assay, positive control, 24 hours, P<0.01) came out at 5 µM.

For the compound `N=C(N)NCCC[C@H](NC(=O)[C@H](CCCNC(=N)N)NC(=O)[C@H](Cc1c[nH]c2ccccc12)NC(=O)[C@H](Cc1c[nH]c2ccccc12)NC(=O)[C@H](CCCNC(=N)N)NC(=O)[C@H](CCCNC(=N)N)NC(=O)[C@H](Cc1c[nH]c2ccccc12)NC(=O)[C@H](Cc1c[nH]c2ccccc12)NC(=O)[C@H](CCCNC(=N)N)NC(=O)[C@H](Cc1c[nH]c2ccccc12)NC(=O)[C@H](Cc1c[nH]c2ccccc12)NC(=O)[C@@H](N)CCCNC(=N)N)C(=O)O` [WR-12] (H-RWWRWWRRWWRR-OH), the MIC50 in data set [1] is on record as 0.5 µM (≈ 1.04 µg/mL); in data set [2], 1 µM (≈ 2.07 µg/mL). The MIC90 in data set [1] and in data set [2] was 2 µM (≈ 4.14 µg/mL) throughout. Moreover, the “GM MIC S. pseudintermedius” value in data set [3] was 1.5 µM. Also, the IC50 in data set [4] (24 h) and in data set [5] was 128 µM in each case. Besides, in data set [4] (24 h), the “TI (Therapeutic index) J774A.1” value was 85.3/85.3.
